Laboratory results as given in paper PMC4450297, “Screening Active Compounds from Garcinia Species Native to China Reveals Novel Compounds Targeting the STAT/JAK Signaling Pathway” (BioMed Research International, 2015).

Experiments:
Test in all cases: Cell panel screen (CellTiter-Glo)
Format in all cases: cell-based, human
BT-549 = BT-549 (Breast), 20 micromolar, 72 hrs
Method in brief: (§1)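 Cells grown in 10% FBS medium were seeded, left overnight at 37°C, then exposed to compound at 20 μM final for 72 h. Luminescent ATP read-out; percent growth inhibition taken relative to DMSO-treated controls after subtraction of cell-free background.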

C8166 = C8166 (Leukemia), 20 micromolar, 72 hrs
Method in brief: as §1

J82 = J82 (Urinary bladder), 20 micromolar, 72 hrs
Method in brief: as §1

NCI-H1623 = NCI-H1623 (Lung), 20 micromolar, 72 hrs
Method in brief: as §1

Colo 205 = conditions: Colo 205, 20 micromolar, 72 hrs
Method in brief: as §1

ChaGo-K-1 = ChaGo-K-1 (Lung), 20 micromolar, 72 hrs
Method in brief: as §1

Panc 03.27 = Panc 03.27 (Pancreas), 20 micromolar, 72 hrs
Method in brief: as §1

NCI-H1770 = NCI-H1770 (Lung), 20 micromolar, 72 hrs
Method in brief: as §1

CW-2 = CW-2 (Colon), 20 micromolar, 72 hrs
Method in brief: as §1

NCI-H2405 = NCI-H2405 (Lung), 20 micromolar, 72 hrs
Method in brief: as §1

NCI-H28 = NCI-H28 (Lung), 20 micromolar, 72 hrs
Method in brief: as §1

NCI-H524 = NCI-H524 (Lung), 20 micromolar, 72 hrs
Method in brief: as §1

C3A = C3A (Liver), 20 micromolar, 72 hrs
Method in brief: as §1

Bel-7402 = Bel-7402 (Liver), 20 micromolar, 72 hrs
Method in brief: as §1

HCC1395 = HCC1395 (Breast), 20 micromolar, 72 hrs
Method in brief: as §1

HCC1569 = HCC1569 (Breast), 20 micromolar, 72 hrs
Method in brief: as §1

SW13 = SW13 (Adrenal gland), 20 micromolar, 72 hrs
Method in brief: as §1

CCF-STTG1 = CCF-STTG1 (Brain), 20 micromolar, 72 hrs
Method in brief: as §1

MSTO-211-H = MSTO-211-H (Lung), 20 micromolar, 72 hrs
Method in brief: as §1

A498 = A498 (listed under Lung), 20 micromolar, 72 hrs
Method in brief: as §1

NCI-H2347 = NCI-H2347 (Lung), 20 micromolar, 72 hrs
Method in brief: as §1

BT-474 = BT-474 (Breast), 20 micromolar, 72 hrs
Method in brief: as §1

TCCSUP = TCCSUP (Urinary bladder), 20 micromolar, 72 hrs
Method in brief: as §1

HCC1937 = HCC1937 (Breast), 20 micromolar, 72 hrs
Method in brief: as §1

HT-1197 = HT-1197 (Urinary bladder), 20 micromolar, 72 hrs
Method in brief: as §1

HEC-1-A = HEC-1-A (Uterus), 20 micromolar, 72 hrs
Method in brief: as §1

HCC1599 = HCC1599 (Breast), 20 micromolar, 72 hrs
Method in brief: as §1

HGC-27 = HGC-27 (Stomach), 20 micromolar, 72 hrs
Method in brief: as §1

RL95 = RL95 (Uterus), 20 micromolar, 72 hrs
Method in brief: as §1

ZR-75-30 = ZR-75-30 (Breast), 20 micromolar, 72 hrs
Method in brief: as §1

A704 = A704 (Kidney), 20 micromolar, 72 hrs
Method in brief: as §1

HPAF-II = HPAF-II (Pancreas), 20 micromolar, 72 hrs
Method in brief: as §1

M059J = M059J (Brain), 20 micromolar, 72 hrs
Method in brief: as §1

NCI-H1694 = NCI-H1694 (Lung), 20 micromolar, 72 hrs
Method in brief: as §1

T98G = T98G (Brain), 20 micromolar, 72 hrs
Method in brief: as §1

T47D = T47D (Breast), 20 micromolar, 72 hrs
Method in brief: as §1

Compound | Percent Inhibition (BT-549) [%] | Percent Inhibition (C8166) [%] | Percent Inhibition (J82) [%] | Percent Inhibition (NCI-H1623) [%] | Percent Inhibition (Colo 205) [%] | Percent Inhibition (ChaGo-K-1) [%] | Percent Inhibition (Panc 03.27) [%] | Percent Inhibition (NCI-H1770) [%] | Percent Inhibition (CW-2) [%] | Percent Inhibition (NCI-H2405) [%] | Percent Inhibition (NCI-H28) [%] | Percent Inhibition (NCI-H524) [%] | Percent Inhibition (C3A) [%] | Percent Inhibition (Bel-7402) [%] | Percent Inhibition (HCC1395) [%] | Percent Inhibition (HCC1569) [%] | Percent Inhibition (SW13) [%] | Percent Inhibition (CCF-STTG1) [%] | Percent Inhibition (MSTO-211-H) [%] | Percent Inhibition (A498) [%] | other results
CC(C)=CCc1c(O)cc2oc3ccc(O)cc3c(=O)c2c1O [Ge-1] | 20 | 9 | 38 | 9 | 29 | 44 | 43 | 13 | 62 | 7 | 23 | 42 | 32 | 19 | 55 | 52 | 57 | 43 | 44 | 54 | Percent Inhibition (NCI-H2347): 32%; Percent Inhibition (BT-474): 30%; Percent Inhibition (TCCSUP): 28%; Percent Inhibition (HCC1937): 11%; Percent Inhibition (HT-1197): 50%; Percent Inhibition (HEC-1-A): 26%; Percent Inhibition (HCC1599): 54%; Percent Inhibition (HGC-27): 54%; Percent Inhibition (RL95): 37%; Percent Inhibition (ZR-75-30): 81%; Percent Inhibition (A704): 34%; Percent Inhibition (HPAF-II): 28%; Percent Inhibition (M059J): 24%; Percent Inhibition (NCI-H1694): 49%; Percent Inhibition (T98G): 46%; Percent Inhibition (T47D): 45%
CC(C)=CCc1c(O)cc(O)c2c1O[C@]13C(=C[C@@H]4C[C@H]1C(C)(C)O[C@@]3(CC=C(C)C)C4=O)C2=O [GB35] | 100 | 99 | 99 | 100 | 100 | 99 | 99 | 100 | 100 | 99 | 93 | 100 | 98 | 99 | 100 | 100 | 100 | 100 | 99 | 93 | Percent Inhibition (NCI-H2347): 97%; Percent Inhibition (BT-474): 99%; Percent Inhibition (TCCSUP): 100%; Percent Inhibition (HCC1937): 100%; Percent Inhibition (HT-1197): 96%; Percent Inhibition (HEC-1-A): 100%; Percent Inhibition (HCC1599): 100%; Percent Inhibition (HGC-27): 100%; Percent Inhibition (RL95): 100%; Percent Inhibition (ZR-75-30): 100%; Percent Inhibition (A704): 99%; Percent Inhibition (HPAF-II): 100%; Percent Inhibition (M059J): 100%; Percent Inhibition (NCI-H1694): 100%; Percent Inhibition (T98G): 100%; Percent Inhibition (T47D): 100%
COc1cc(O)c2c(=O)c3ccc(O)c(O)c3oc2c1CC=C(C)C [gl-17] | 65 | 90 | 88 | 41 | 97 | 87 | 84 | 40 | 96 | 19 | 76 | 98 | 89 | 60 | 89 | 74 | 85 | 74 | 79 | 75 | Percent Inhibition (NCI-H2347): 86%; Percent Inhibition (BT-474): 89%; Percent Inhibition (TCCSUP): 83%; Percent Inhibition (HCC1937): 83%; Percent Inhibition (HT-1197): 95%; Percent Inhibition (HEC-1-A): 76%; Percent Inhibition (HCC1599): 93%; Percent Inhibition (HGC-27): 92%; Percent Inhibition (RL95): 87%; Percent Inhibition (ZR-75-30): 98%; Percent Inhibition (A704): 42%; Percent Inhibition (HPAF-II): 89%; Percent Inhibition (M059J): 91%; Percent Inhibition (NCI-H1694): 98%; Percent Inhibition (T98G): 85%; Percent Inhibition (T47D): 72%
